In publication PMC6326535, “Total Synthesis of Xanthoangelol B and Its Various Fragments: Toward Inhibition of Virulence Factor Production of Staphylococcus aureus” (Journal of Medicinal Chemistry, 2018):
Where two headings read alike, the source gives them in different places.

Assays:
Gram-positive bacteria = settings: cited from earlier work
[1] = tested on: hla, aur, γ-hemolysin, staphylokinase, sarA; assay type: cell-based, Staphylococcus aureus
HeLa cells [2] = test: LDH release cytotoxicity assay; assay type: cell-based; settings: for IC50: Homo sapiens, HeLa, 72 h, read-out: IC50 for HeLa cell survival
kinase domain of SaeS = kinase domain of SaeS (Staphylococcus aureus, UniProt Q840P7); test: biochemical
Sequence of kinase domain of SaeS (Q840P7 118-351): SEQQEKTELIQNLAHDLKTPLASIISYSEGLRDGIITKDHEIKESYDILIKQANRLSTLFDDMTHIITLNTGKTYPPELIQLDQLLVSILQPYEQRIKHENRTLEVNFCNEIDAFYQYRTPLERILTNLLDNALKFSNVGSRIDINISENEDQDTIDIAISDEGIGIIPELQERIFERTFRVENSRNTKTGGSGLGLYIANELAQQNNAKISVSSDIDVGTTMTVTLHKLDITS
Experimental: Next, we attempted to measure the direct binding of 1 and PM-56 with SaeS using the intrinsic fluorescence quenching assay. Since SaeS contains seven Tyr (and zero Trp) residues, the Tyr fluorescence at 306 nm was monitored before and after binding of 1 and PM-56. The reduction of fluorescence upon ligand binding was expressed as the percent fluorescence quenching, and the Kd value was calculated by nonlinear regression fitting (Figure S9).
Purified recom binant SaeS (1 µM ) w as incubated w ith various concentrations
of ei t her (A ) 1 or (B ) PM-56 for 15 m in at room tem perature. U pon excitation at 276 nm,
reductions of SaeS intensities at an emission peak of 306 nm w ere recorded and plotted against the
chem ical concentrations. D ata points were averaged from three independent m easurem ents and
expressed as m eans (dots) ± standard deviations of m eans (w hiskers). Solid lines represent the […]
The intrinsic fluorescence quenching assay to determine the binding affinities of […]
fluorescence of t h e kinase dom ain of SaeS w as recorded at an emission peak of 306 nm upon […]
Eclipse fluorescence spectrophotom eter (A gilent Technologies, U SA ). […]
chem icals but w ithout SaeS w ere used as blanks for correcting the fluorescence intensities. […]
by plotting the reductions of SaeS fluorescence intensity at each chem ical treatm ent against the […]

saeS knockout S. aureus = assay type: in vivo, Galleria mellonella; settings: for reduction in CFU compared to the wild type infection group: saeS knockout infection, after 72 h
HeLa cells [3] = tested on: HeLa cells
[4] = tested on: methicillin-resistant S. aureus USA300; test: cells; assay type: cell-based, Staphylococcus aureus
[5] = molecular target: SaeS phosphotransferase (PT) activity (Staphylococcus aureus, UniProt Q840P7); assay type: biochemical; settings: radioactively phosphorylated SaeS in the presence of SaeR
Sequence of SaeS phosphotransferase (PT) activity (Q840P7 118-351): as above

[6] = molecular target: minimal kinase domain of SaeS (Staphylococcus aureus, UniProt Q840P7); test: biochemical
Sequence of minimal kinase domain of SaeS (Q840P7 118-351): as above

S. aureus USA300 [7] = settings: for growth of S. aureus: at (up to) 64 μM, up to 20 h; for bacterial growth: 8 h
Experimental: Figure 1 Various concentrations of compounds were used to treat the USA300-Phlam GFP strain, and GFP expression was analyzed at 8 h. […] All the experiments were performed in triplicates, and significance was compared with control (no treatment) using one-way ANOVA.
56 at the concentration in the range from 2 μM to 64 μM. The cell density w as m onitored as the
optical density at 600 nm.
B act eri al growt h for 8 h i n t he presence of PM-56; C, B acterial growth for 20 h in the presence of
xant hoangel ol B 1; D, B act eri al growt h for 20 hours i n t he presence of PM-56. All the experi m ents
were perform ed in triplicates.

SaeRS TCS = test: microbe, parasite or virus in culture; assay type: cell-based, Staphylococcus aureus USA300; settings: for IC50 / IC90: Staphylococcus aureus; for IC50: USA300, 8 h, read-out: IC50 against the SaeRS GFP reporter; for IC90: read-out: IC90 for the SaeRS GFP reporter; for inhibition of the SaeRS TCS: at 20 μM
AgrC = AgrC (Staphylococcus aureus, UniProt O07911); assay type: biochemical; settings: for IC50: 5 μM protein, autokinase activity
Sequence of AgrC (O07911 206-430 limits assumed): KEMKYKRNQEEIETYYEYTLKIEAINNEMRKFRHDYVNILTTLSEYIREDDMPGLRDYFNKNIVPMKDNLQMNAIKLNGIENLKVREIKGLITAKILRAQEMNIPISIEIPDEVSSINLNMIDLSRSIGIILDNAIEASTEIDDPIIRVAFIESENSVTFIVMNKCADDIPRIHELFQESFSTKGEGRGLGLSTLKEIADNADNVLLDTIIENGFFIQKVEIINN

S. aureus USA300 [8] = assay type: in vivo, Galleria mellonella; settings: 72 h; for survival compared to the vehicle control: 5 × 10^6 CFU
S. aureus USA300 [9] = assay type: in vivo, Galleria mellonella; settings: for bacterial burden compared to the vehicle control: dose of approximately 1 mg/kg
[10] = molecular target: minimal kinase domain of SaeS / MBP-SaeS (Staphylococcus aureus, UniProt Q840P7); assay type: binding; settings: 1.0 mM compound, 0.1 mM SaeS or 30 μM MBP-SaeS
Sequence of minimal kinase domain of SaeS / MBP-SaeS (Q840P7 118-351): as the sequence (Q840P7 118-351) above

[11] = set-up: method as in PMID 22452965; settings: mice, single dose study; cited from earlier work
[12] = Staphylococcus aureus, USA300, Erythrocyte, 8 h, read-out: IC50 for the inhibition of erythrocyte hemolysis, human RBCs, 8 h incubation of USA300 with compound
[13] = read-out: IC50 for the inhibition of erythrocyte hemolysis, human RBCs, 8 h incubation of USA300 with compound

Row | Compound | antibacterial activity against Gram-positive bacteria (Gram-positive bacteria) | level of sarA transcription [1] | cytotoxicity IC50 relative to IC50 for the GFP-reporter inhibition (HeLa cells [2]) [fold] | IC50 (HeLa cells [2]) [µM] | Kd (kinase domain of SaeS) [µM] | visible toxicity to HeLa cells (HeLa cells [3]) | IC50 [4, 12] [µM] | protection from hemolysis ([4]; at 4 μM) | protection from hemolysis ([4]; at 8 μM) | IC50 [4, 13] [µM] | inhibition of phosphotransferase (PT) activity [5] | IC50 [6] [µM] | growth of S. aureus (S. aureus USA300 [7]) | inhibitory activity against SaeRS (SaeRS TCS) | IC50 (SaeRS TCS) [µM] | IC90 (SaeRS TCS) [µM] | IC50 (AgrC) [µM] | bacterial burden compared to the vehicle control (S. aureus USA300 [9]) | inhibition of the SaeRS TCS (SaeRS TCS) | also measured
1 | 4-hydroxyderricin | shown to have an antibacterial activity | – | – | – | – | – | – | – | – | – | – | – | – | – | – | – | – | – | – | –
2 | C=C(C)C(O)CC/C(C)=C/Cc1c(O)ccc(C(=O)/C=C/c2ccc(O)cc2)c1O (centres unmarked) [Compound 1, Xanthoangelol B] | – | not significantly affected | 10 | 19.7 | 40 | did not produce substantially visible toxicity | 4.62 | visible protection | comparable level of protection to that of saeS knockout mutants | 4.6 | no inhibition was observed | 220 | severely inhibited | excellent inhibitory activity | 2.1 | 8 | 339 | sharp decrease | – | survival rate of G. mellonella infected with the knockout strain (saeS knockout S. aureus; 2.042 mg/kg body weight every 12 h for 72 h): 70%; reduction in CFU compared to the wild type infection group (saeS knockout S. aureus; 2.042 mg/kg): 76.8%; bacterial growth (S. aureus USA300 [7]; at up to 8 μM): did not disrupt bacterial growth; concentration from which growth inhibition started (S. aureus USA300 [7]; growth followed up to 20 h): ≥ 16 µM; lower activity for AgrC compared to that for SaeS (AgrC): 1.5 fold; survival compared to the vehicle control (S. aureus USA300 [8]; 2.0 mg/kg every 12 h): 3.5 fold; survival (S. aureus USA300 [8]; 3.1 mg/kg every 12 h): 90%; survival (S. aureus USA300 [8]; 4.1 mg/kg every 12 h): complete survival; decline of bacterial burden (S. aureus USA300 [9]; 4.1 mg/kg): 1.72 log10 CFU/worm
3 | C=C(C)C(O)CC/C(C)=C/Cc1c(O)ccc(C(=O)CC(O)c2ccc(O)cc2)c1O (centres unmarked) [PM-56, 1-(2,4-Dihydroxy-3-(6-hydroxy-3,7-dimethylocta-2,7-dien-1-yl)phenyl)-3-hydroxy-3-(4-hydroxyphenyl)propan-1-one] | – | not significantly affected | 7 | 28.9 | 6.8 | did not produce substantially visible toxicity | 3.97 | visible protection | comparable level of protection to that of saeS knockout mutants | 4 | no inhibition was observed | 160 | comparable growth to the control | excellent inhibitory activity | 4.3 | 10 | 140 | sharp decrease | – | survival rate of G. mellonella infected with the knockout strain (saeS knockout S. aureus; 2.131 mg/kg body weight every 12 h for 72 h): 90%; reduction in CFU compared to the wild type infection group (saeS knockout S. aureus; 2.131 mg/kg): 83.3%; higher activity than 1 for SaeS [6]: 1.4 fold; binding to SaeS by 1D CPMG and 1D STD NMR [10]: specifically binds to SaeS; bacterial growth (S. aureus USA300 [7]; at up to 16 μM): did not disrupt bacterial growth; higher activity than 1 for AgrC (AgrC): 2.4 fold; survival compared to the vehicle control (S. aureus USA300 [8]; 2.1 mg/kg every 12 h): 3.5 fold; survival (S. aureus USA300 [8]; 3.2 mg/kg every 12 h): 90%; survival (S. aureus USA300 [8]; 4.3 mg/kg every 12 h): complete survival; decline of bacterial burden (S. aureus USA300 [9]; 4.3 mg/kg): 1.84 log10 CFU/worm
4 | COc1ccc(C(=O)/C=C/c2ccc(O)cc2)c(O)c1C/C=C(\C)CCC=C(C)C [xanthoangelol F, reference compound] | – | – | – | – | – | – | – | – | – | – | – | – | – | – | – | – | – | – | did not show inhibitory activity | –
5 | CC(C)=CCC/C(C)=C/Cc1c(O)ccc(C(=O)/C=C/c2ccc(O)cc2)c1O [xanthoangelol] | shown to have an antibacterial activity | – | – | – | – | – | – | – | – | – | – | – | – | – | – | – | – | – | did not show inhibitory activity | absorption and distribution after oral administration [11]: absorbed and distributed rapidly; absorption efficiency [11]: low
